Data published in patent US8815946B2, “Inhibition of proliferation and fibrotic response of activated corneal stromal cells” (University of Pittsburgh—of the Commonwealth System of …, priority 2008, dated 2014).
“Also recorded” adds a separate entry of the source.

Key:
Assay type in all cases: cell-based
[1] = test system: α-SMA; assay: Immunocytochemical analysis of α-SMA expression, human corneal stromal cells; conditions: 10 mM EP
Procedure: (§1) FIG. 3. Immunocytochemical analysis of α-SMA expression. Human corneal stromal cells in P2 growing in DMEM/F12 with 10% FBS were subcultured into desired number of 35 mm tissue culture dishes. After 24 hrs of incubation, the media were replaced with DMEM/F12 medium containing 1% FBS and TGF-β1 with or without (control) 10 mM EP and incubated for two and four days (media were changed every 24 hours). The cells were fixed and double stained for α-SMA (green) and phalloidin (red) using an indirect fluorescence technique as described herein.
(§2) For immunocytochemical analyses, the cells were cultured on glass cover slips or tissue culture dishes. Cells were rinsed with phosphate-buffered saline (PBS), fixed with paraformaldehyde-lysine-periodate and permeabilized with PIPES buffer containing 0.2% Triton X-100, as described previously (Guerriero et al., Invest. Opthalmol. Vis. Sci. 2007; 48: 627-635). Fixed and permeabilized cells were reacted with 10% heat-inactivated goat serum in PBS, pH 7.5, for 45 minutes to block the nonspecific binding of the secondary antibody, rinsed with PBS, and then treated with the primary and secondary antibodies as described previously (Guerriero et al. Invest. Opthalmol. Vis. Sci. 2007; 48: 627-635). Primary antibodies included monoclonal rat anti-α smooth muscle actin (SMA) and anti-fibronectin. […]

[2] = test system: alpha-smooth muscle actin; assay: Western blot of TGF-β1 activated rabbit corneal keratocytes: alpha-smooth muscle actin; conditions: TGF-β1 (10 ng/ml)+1% FBS, two days, compared to controls with no treatment, listed as EP
Procedure: (§3) FIGS. 19A and 19B. Western blot analyses: Rabbit corneal keratocytes were isolated and cultured in serum-free DMEM/F12 into 60 mm tissue culture dishes. After 24 hrs of incubation, the media were replaced with DMEM/F12 medium containing TGF-β1(10 ng/ml)+1% FBS without (control) or with EP or EP-derivatives for two days. The cells were extracted in RIPA buffer and the extracts containing 5 μg of total proteins were loaded per lane for Western blot analysis.
(§4) Keratocytes or fibroblasts grown under different culture conditions were extracted in RIPA buffer (9.1 mM dibasic sodium phosphate, 1.7 mM monobasic sodium phosphate, 150 mM NaCl, pH, 7.4, 1% Nonidet P-40, 0.5% sodium deoxycholate, 0.1% SDS, 0.03 TIU/mL aprotinin, 1 mM sodium orthovanadate, and 100 μg/mL phenylmethylsulfonyl fluoride (PMSF)). Aliquots of cell extracts containing 50 or 100 μg protein were subjected to SDS-PAGE. Protein bands on SDS-PAGE were electrophoretically transferred to IMMOBILON-P™ membrane (Millipore Corp., Bedford, Mass.), stained with 0.1% Coomassie blue 250 in 40% methanol/1% acetic acid for 1 minute, destained one to three times with 50% methanol/1% acetic acid, scanned for densitometric comparisons of relative concentrations of proteins per lane, destained with methanol, and subjected to Western blot analysis. Immunoreactive bands were detected using chemiluminescence Western chemiluminescence reagents.
(§5) As described in Example 1, corneal stromal cells were isolated from rabbit corneas and cultured using the same procedures. The keratocytes in serum free media were treated with b-FGF (40 ng/ml)+HS (5 μg/ml) with or without 15 mM EP or 1, 2.5 or 5 mM following EP derivatives: 2-oxopropionic acid 3-methoxyphenyl ester, 2-oxopropionic acid 2-ethoxyethyl ester, 2-oxopropionic acid 2-chloroethyl ester, 2-oxopropionic acid isopropyl ester, 2-oxopropionic acid butyl ester, 2-oxopropionic acid p-tolyl ester, 2-oxopropionic acid tert-butyl ester. […] The relative levels of the expression of specific proteins were analyzed by Western blot analyses of the cell lysates as described supra.

[3] = test system: α-SMA; assay: Western blot analyses of α-SMA, human corneal stromal cells
Procedure: (§6) FIG. 5. Western blot analyses of α-SMA. Human corneal stromal cells in P2 growing in DMEM/F12 with 10% FBS were subcultured into 60 mm tissue culture dishes. After 24 hrs of incubation, the media were replaced with DMEM/F12 medium containing 1% FBS and TGF-β1 with or without (control) different concentrations of EP as indicated and incubated for two and four days (media were changed every 24 hours). The cells were extracted in RIPA buffer and the extracts containing 5 μg of total proteins were loaded per lane for Western blot analysis.
(§7) Keratocytes or fibroblasts grown under different culture conditions were extracted in RIPA buffer (9.1 mM dibasic sodium phosphate, 1.7 mM monobasic sodium phosphate, 150 mM NaCl, pH, 7.4, 1% Nonidet P-40, 0.5% sodium deoxycholate, 0.1% SDS, 0.03 TIU/mL aprotinin, 1 mM sodium orthovanadate, and 100 μg/mL phenylmethylsulfonyl fluoride (PMSF)). Aliquots of cell extracts containing 50 or 100 μg protein were subjected to SDS-PAGE. […] Immunoreactive bands were detected using chemiluminescence Western chemiluminescence reagents. […]

[4] = test system: cellular fibronectin; assay: Western blot analyses of cellular fibronectin, human corneal stromal cells; conditions: TGF-β1, two and four days
Procedure: as §6, with “7.” for “5.”, “cellular fibronectin.” for “α-SMA.”, “different EP” for “different”, “concentrations” for “concentrations of EP”
as §7

[5] = test system: type III collagen, tenascin and fibronectin; assay: Western blot of TGF-β1 activated rabbit corneal keratocytes: type III collagen, tenascin, fibronectin; conditions: TGF-β1 (10 ng/ml)+1% FBS, two days, compared to controls with no treatment
Procedure: as §3, §4, §5

[6] = test system: α-SMA; assay: Immunocytochemical analysis of α-SMA expression, rabbit corneal stromal cells; conditions: 10 mM EP
Procedure: as §1, with “4.” for “3.”, “Rabbit” for “Human”, “into” for “into desired number of”, “for” for “for two and”, “and” for “and double”, “(green)” for “(green) and phalloidin (red)”
as §2

CCOC(=O)C(C)=O [ethyl pyruvate]
TGF-β1 induced expression of α-SMA (immunocytochemical) [1]: downregulated | alpha-smooth muscle actin levels (Western blot) [2]: reduced expression; also recorded: reduced levels | EP concentration with highest downregulation of α-SMA ([3]; TGF-β1): 20 mM | TGF-β1 induced expression of α-SMA (Western blot) ([3]; two and four days, concentration dependent): down-regulated | downregulation of fibronectin by Western blot of cell extracts (including the matrix) [4]: confirmed | levels of type III collagen, tenascin and fibronectin (Western blot) [5]: reduced levels | TGF-β1 induced expression of α-SMA (immunocytochemical) [6]: downregulated
